Data set [1] in a line: βHB blood plasma concentration after 18 g βHB in microbeads or free (Example 3 cross-over trial). The format is in vivo, human. The following applies: n=10. An excerpt: A dose of βHB contained in microbeads was 20 g of microbeads containing a mix of 50% R-3-hydroxybutyrate mineral salts (Na/Ca/K/Mg Blend 1:1:1:2) and 50% R-3-hydroxybutyric acid (βHB formulation). In particular, said βHB formulation was enriched in pockets dispersed throughout a polymerized yellow pea protein matrix of the microbead particles and constituted approximately 89 to 90% of the weight of the microbead. Thus, the βHB formulation comprised in said dose was about 18 g, in particular about 17.8 g.
The dose of non-enclosed (free) βHB was also about 18 g, in particular about 17.8 g, and the dose of empty microbeads was about 2 g, in particular about 2.2 g. Thus, the free βHB and empty microbeads were direct controls of the composition comprising βHB contained in microbeads.
For administration, one dose was suspended in 250 ml of lemon-flavored non-caloric water.
Participants arrived at the laboratory between 7.30 and 9.00 after an overnight fast, and provided a urine sample for hydration assessment (PEN Refractometer, Atago Instruments). Next, a fasting blood sample was taken via a cannula inserted into a superficial forearm vein for serial blood sampling. After providing a “fasting” blood sample, participants ingested a 250 mL lemon flavored non-caloric water drink wherein the 18 g dose of a microbead comprising the βHB formulation was suspended. After supplementation, baseline determinations tests were repeated for comparison between the pre- and post-supplementation periods. Every 30 min for three hours after ingestion, a blood sample was taken. After 3 hours, a blood sample was taken at 1-hour intervals. After 8 hours, a blood sample was taken at 2-hour intervals. Participants remained in the lab at quiet rest throughout this time period and were permitted to use entertainment headsets and the digital library and were allowed make short walks outside. […] The blood samples were, at least for the determination of AcAc levels, directly analyzed within 2 hours (or otherwise stored at −80° C. before analysis). […]

Data set [2] in a line: Glucose blood plasma levels, Example 3 trial. The format is in vivo, human. To be noted: about 18 g βHB formulation; snack provided at 6 h; n=10. As to the method: Participants arrived at the laboratory between 7.30 and 9.00 after an overnight fast, and provided a urine sample for hydration assessment (PEN Refractometer, Atago Instruments). Next, a fasting blood sample was taken via a cannula inserted into a superficial forearm vein for serial blood sampling. After providing a “fasting” blood sample, participants ingested a 250 mL lemon flavored non-caloric water drink wherein the 18 g dose of a microbead comprising the βHB formulation was suspended. After supplementation, baseline determinations tests were repeated for comparison between the pre- and post-supplementation periods. Every 30 min for three hours after ingestion, a blood sample was taken. After 3 hours, a blood sample was taken at 1-hour intervals. After 8 hours, a blood sample was taken at 2-hour intervals. Participants remained in the lab at quiet rest throughout this time period and were permitted to use entertainment headsets and the digital library and were allowed make short walks outside. Participants were offered some small snack 6 hours after consumption of the prototype drink which they could choose from low caloric yoghurts, muesli bars and low caloric fruit juices. […] The blood samples were, at least for the determination of AcAc levels, directly analyzed within 2 hours (or otherwise stored at −80° C. before analysis). […]

Data set [3] in a line: Tolerability of βHB, Example 3 trial. To be noted: about 18 g dose.
Description: (§1) The participants went to the visits A, B and C in a randomized order.
(§2) The experimental setup allowed to directly determine the physiological effects of ingesting βHB enclosed in microbeads compared to standard non-enclosed βHB. To distinguish the effects of βHB from effects of the enclosing material, i.e. the pea protein, participants have also ingested empty microbeads on one trial day.
For data set [4] the following is noted: in vivo.
Description: as §1, §2
[5] abbreviates: about 18 g βHB formulation oral.

Consider `C[C@@H](O)CC(=O)O` [free βHB, R-3-hydroxybutyric acid], for which, in data set [1] (about 18 g βHB formulation oral in 250 ml lemon-flavored water, first measurement time-point), the “average plasma βHB concentration at peak” value was 1.5 mM. In data set [1] (setting [5]), the “time within which plasma βHB concentration dropped to baseline levels” value is at most 2 h and the “time-point of peak average plasma βHB concentration” value was found to be 0.5 h. Further, the “blood glucose levels upon ingestion” value in data set [2] was “not altered for at least 4 hours”. In data set [3] (of 10 participants), the “participants expressing mild nausea” value is 4 participants; the “participants expressing severe discomfort and sickness” value was 3 participants. For the same compound, the “participants reporting gastrointestinal distress (stomach cramping, upset, nausea, bloating, diarrhea)” value in data set [3] (within the first hour upon ingestion) is listed as 7 of 10 participants. Also, in data set [4], the “tolerability of the dose” value is “poorly tolerated”.

For the origin of these results see patent US20220257546A1, “KETONE BODIES ENCLOSED IN MICROBEADS” (Ketoswiss AG, priority 2019, published 2022).
